Test results from patent publication US12448399B2, “Cereblon-based KRAS degrading PROTACs and uses related thereto” (Arvinas Operations, Inc., priority 2023, dated 2025).

Target: T1, KRas-G12D (Homo sapiens, UniProt P01116, G12D)
T1 construct: insert the HiBiT tag onto the N-terminus of one or more of the endogenous KRas alleles; host or cells: AsPC-1 HiBiT-KRasG12D knock-in clone (one tagged allele, two untagged KRasG12D alleles)
Assay: HiBiT Degradation Assay (G12D), AsPC-1 HiBiT-KRasG12D cells, 24 hr
Assay type: cell-based
Settings: for Dmax: ASPC1, AsPC-1 cells, maximum degradation observed; for DC50: AsPC-1 cells
Outline: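 AsPC-1 cells with CRISPR N-terminal HiBiT knock-in on one endogenous KRasG12D allele, treated 24 hr at 37° C with compound titrations in 0.5% DMSO. Lytic HiBiT luminescence normalized to DMSO, fitted to a 4-parameter model for DC50 and Dmax. Parallel alamar blue (4 hr) checked viability.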

T1 sequence (P01116 1-188 isoform P01116-2 G12D): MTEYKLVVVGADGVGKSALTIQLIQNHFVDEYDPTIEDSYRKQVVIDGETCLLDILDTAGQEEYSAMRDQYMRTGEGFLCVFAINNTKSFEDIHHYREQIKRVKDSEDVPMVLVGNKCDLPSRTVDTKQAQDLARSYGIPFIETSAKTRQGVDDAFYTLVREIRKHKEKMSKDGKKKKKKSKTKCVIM

For `C#Cc1c(F)ccc2cc(O)cc(-c3ncc4c(N5CC6CCC(C5)N6)nc(OCCN5CCC6(CC5)CCN(CC5CCN(c7ccc8c(c7F)CN(C7CCC(=O)NC7=O)C8=O)CC5)CC6)nc4c3F)c12` (centres unmarked) [Compound 121, 3-[5-[4-[[9-[2-[4-(3,8-diazabicyclo[3.2.1]octan-3-yl)-7-(8-ethynyl-7-fluoro-3-hydroxy-1-naphthyl)-8-fluoro-pyrido[4,3-d]pyrimidin-2-yl]oxyethyl]-3,9-diazaspiro[5.5]undecan-3-yl]methyl]-1-piperidyl]-4-fluoro-1-oxo-isoindolin-2-yl]piperidine-2,6-dione], the Dmax was > 70% and the DC50 was < 5.1 µM.
In the case of `C#Cc1c(F)ccc2cc(O)cc(-c3ncc4c(N5CC6CCC(C5)N6)nc(OC[C@@H]5C[C@@H](OC6CCN(CC7CCN(c8ccc9c(c8F)CN(C8CCC(=O)NC8=O)C9=O)CC7)CC6)CN5C)nc4c3F)c12` (stereo partly drawn) [Compound 122, 3-(5-{4-[(4-{[(3R,5S)-5-{[(4-{3,8-diazabicyclo[3.2.1]octan-3-yl}-7-(8-ethynyl-7-fluoro-3-hydroxynaphthalen-1-yl)-8-fluoropyrido[4,3-d]pyrimidin-2-yl)oxy]methyl}-1-methylpyrrolidin-3-yl]oxy}piperidin-1-yl)methyl]piperidin-1-yl}-4-fluoro-1-oxo-2,3-dihydro-1H-isoindol-2-yl)piperidine-2,6-dione], the Dmax is reported as > 70% and the DC50 is reported as < 5.1 µM.
With `C#Cc1c(F)ccc2cc(O)cc(-c3ncc4c(N5CC6CCC(C5)N6)nc(OCCN5CCC(CC6CCN(CC7CCN(c8ccc(F)c9c8CN(C8CCC(=O)NC8=O)C9=O)CC7)CC6)CC5)nc4c3F)c12` (centres unmarked) [Compound 123] the Dmax was > 70% and the DC50 was < 5.1 µM.
`C#Cc1c(F)ccc2cc(O)cc(-c3ncc4c(N5CC6CCC(C5)N6)nc(OCCN5CCC(F)(CC6CCN(CC7CCN(c8cccc9c8CN(C8CCC(=O)NC8=O)C9=O)CC7)CC6)CC5)nc4c3F)c12` (centres unmarked) [Compound 124, 3-{4-[4-({4-[(1-{2-[(4-{3,8-diazabicyclo[3.2.1]octan-3-yl}-7-(8-ethynyl-7-fluoro-3-hydroxynaphthalen-1-yl)-8-fluoropyrido[4,3-d]pyrimidin-2-yl)oxy]ethyl}-4-fluoropiperidin-4-yl)methyl]piperidin-1-yl}methyl)piperidin-1-yl]-1-oxo-2,3-dihydro-1H-isoindol-2-yl}piperidine-2,6-dione] was tested, and the Dmax was > 70% and the DC50 was < 5.1 µM.
For `C#Cc1c(F)ccc2cc(O)cc(-c3ncc4c(N5CC6CCC(C5)N6)nc(OCCN5CCC(CC6CCN(CC7(F)CCN(c8cccc9c8CN(C8CCC(=O)NC8=O)C9=O)CC7)CC6)CC5)nc4c3F)c12` (centres unmarked) [Compound 125, 3-{4-[4-({4-[(1-{2-[(4-{3,8-diazabicyclo[3.2.1]octan-3-yl}-7-(8-ethynyl-7-fluoro-3-hydroxynaphthalen-1-yl)-8-fluoropyrido[4,3-d]pyrimidin-2-yl)oxy]ethyl}piperidin-4-yl)methyl]piperidin-1-yl}methyl)-4-fluoropiperidin-1-yl]-1-oxo-2,3-dihydro-1H-isoindol-2-yl}piperidine-2,6-dione], the DC50 was < 5.1 µM.
In the case of `C#Cc1c(F)ccc2cc(O)cc(-c3ncc4c(N5CC6CCC(C5)N6)nc(OCCN5CCC(CN6CCC(CC7CCN(c8cccc9c8CN(C8CCC(=O)NC8=O)C9=O)CC7)CC6)CC5)nc4c3F)c12` (centres unmarked) [Compound 126, 3-{4-[4-({1-[(1-{2-[(4-{3,8-diazabicyclo[3.2.1]octan-3-yl}-7-(8-ethynyl-7-fluoro-3-hydroxynaphthalen-1-yl)-8-fluoropyrido[4,3-d]pyrimidin-2-yl)oxy]ethyl}piperidin-4-yl)methyl]piperidin-4-yl}methyl)piperidin-1-yl]-1-oxo-2,3-dihydro-1H-isoindol-2-yl}piperidine-2,6-dione], the Dmax is reported as > 70% and the DC50 is reported as < 5.1 µM.
In the case of `C#Cc1c(F)ccc2cc(O)cc(-c3nc(N4CC5CCC(C4)N5)c4cnc(OCCN5CCC6(CC5)CN(CC5CCN(c7ccc8c(c7F)CN(C7CCC(=O)NC7=O)C8=O)CC5)C6)nc4c3F)c12` (centres unmarked) [Compound 127], the DC50 is reported as < 5.1 µM.
In the case of `C#Cc1c(F)ccc2cc(O)cc(-c3ncc4c(N5CC6CCC(C5)N6)nc(OCCN5CCC(CCC6CCN(c7cccc8c7CN(C7CCC(=O)NC7=O)C8=O)CC6)CC5)nc4c3F)c12` (centres unmarked) [Compound 128, 3-(4-{4-[2-(1-{2-[(4-{3,8-diazabicyclo[3.2.1]octan-3-yl}-7-(8-ethynyl-7-fluoro-3-hydroxynaphthalen-1-yl)-8-fluoropyrido[4,3-d]pyrimidin-2-yl)oxy]ethyl}piperidin-4-yl)ethyl]piperidin-1-yl}-1-oxo-2,3-dihydro-1H-isoindol-2-yl)piperidine-2,6-dione], the Dmax is reported as > 70% and the DC50 is reported as 0.1 to 5.25 µM.
In the case of `C#Cc1c(F)ccc2cc(O)cc(-c3ncc4c(N5CC6CCC(C5)N6)nc(OCCN5CCC(CC6CCN(c7cccc8c7n(C)c(=O)n8C7CCC(=O)NC7=O)CC6)CC5)nc4c3F)c12` (centres unmarked) [Compound 129, 3-(4-{4-[(1-{2-[(4-{3,8-diazabicyclo[3.2.1]octan-3-yl}-7-(8-ethynyl-7-fluoro-3-hydroxynaphthalen-1-yl)-8-fluoropyrido[4,3-d]pyrimidin-2-yl)oxy]ethyl}piperidin-4-yl)methyl]piperidin-1-yl}-3-methyl-2-oxo-2,3-dihydro-1H-1,3-benzodiazol-1-yl)piperidine-2,6-dione], the Dmax is reported as > 70% and the DC50 is reported as < 5.1 µM.
For `C#Cc1c(F)ccc2cc(O)cc(-c3ncc4c(N5CC6CCC(C5)N6)nc(OCCN5CCC(CC6CCN(CC7CCN(c8cc(F)cc9c8CN(C8CCC(=O)NC8=O)C9=O)CC7)CC6)CC5)nc4c3F)c12` (centres unmarked) [Compound 130, 3-{4-[4-({4-[(1-{2-[(4-{3,8-diazabicyclo[3.2.1]octan-3-yl}-7-(8-ethynyl-7-fluoro-3-hydroxynaphthalen-1-yl)-8-fluoropyrido[4,3-d]pyrimidin-2-yl)oxy]ethyl}piperidin-4-yl)methyl]piperidin-1-yl}methyl)piperidin-1-yl]-6-fluoro-1-oxo-2,3-dihydro-1H-isoindol-2-yl}piperidine-2,6-dione], the Dmax was > 70% and the DC50 was < 5.1 µM.
In the case of `C#Cc1c(F)ccc2cc(O)cc(-c3ncc4c(N5CC6CCC(C5)N6)nc(OCCN5CCC(CC6(F)CCN(CC7CCN(c8cccc9c8CN(C8CCC(=O)NC8=O)C9=O)CC7)CC6)CC5)nc4c3F)c12` (centres unmarked) [Compound 131, 3-{4-[4-({4-[(1-{2-[(4-{3,8-diazabicyclo[3.2.1]octan-3-yl}-7-(8-ethynyl-7-fluoro-3-hydroxynaphthalen-1-yl)-8-fluoropyrido[4,3-d]pyrimidin-2-yl)oxy]ethyl}piperidin-4-yl)methyl]-4-fluoropiperidin-1-yl}methyl)piperidin-1-yl]-1-oxo-2,3-dihydro-1H-isoindol-2-yl}piperidine-2,6-dione], the Dmax is reported as > 70% and the DC50 is reported as < 5.1 µM.
In the case of `C#Cc1c(F)ccc2cc(O)cc(-c3ncc4c(N5CC6CCC(C5)N6)nc(OCCN5CCC6(CC5)CCN(CC5CCN(c7cccc8c7CN(C7CCC(=O)NC7=O)C8=O)CC5)CC6)nc4c3F)c12` (centres unmarked) [Compound 132, 3-(4-{4-[(9-{2-[(4-{3,8-diazabicyclo[3.2.1]octan-3-yl}-7-(8-ethynyl-7-fluoro-3-hydroxynaphthalen-1-yl)-8-fluoropyrido[4,3-d]pyrimidin-2-yl)oxy]ethyl}-3,9-diazaspiro[5.5]undecan-3-yl)methyl]piperidin-1-yl}-1-oxo-2,3-dihydro-1H-isoindol-2-yl)piperidine-2,6-dione], the Dmax is reported as > 70% and the DC50 is reported as < 5.1 µM.
`C#Cc1c(F)ccc2cc(O)cc(-c3ncc4c(N5CC6CCC(C5)N6)nc(OCCN5CCC(CC6CCN(CC7CCN(c8cccc9c8n(C)c(=O)n9C8CCC(=O)NC8=O)CC7)CC6)CC5)nc4c3F)c12` (centres unmarked) [Compound 133, 3-{4-[4-({4-[(1-{2-[(4-{3,8-diazabicyclo[3.2.1]octan-3-yl}-7-(8-ethynyl-7-fluoro-3-hydroxynaphthalen-1-yl)-8-fluoropyrido[4,3-d]pyrimidin-2-yl)oxy]ethyl}piperidin-4-yl)methyl]piperidin-1-yl}methyl)piperidin-1-yl]-3-methyl-2-oxo-2,3-dihydro-1H-1,3-benzodiazol-1-yl}piperidine-2,6-dione] was tested, and the Dmax was > 70% and the DC50 was < 5.1 µM.
In the case of `C#Cc1c(F)ccc2cc(O)cc(-c3nc(N4CC5CCC(C4)N5)c4cnc(OCCN5CCC6(CC5)CCN(CC5CCN(c7ccc8c(c7)CN(C7CCC(=O)NC7=O)C8=O)CC5)CC6)nc4c3F)c12` (centres unmarked) [Compound 134], the Dmax is reported as > 70% and the DC50 is reported as < 5.1 µM.
`C#Cc1c(F)ccc2cc(O)cc(-c3ncc4c(N5CC6CCC(C5)N6)nc(OCCN5CCC6(CC5)CN(CC5CCN(c7cccc8c7CN(C7CCC(=O)NC7=O)C8=O)CC5)C6)nc4c3F)c12` (centres unmarked) [Compound 135, 3-(4-{4-[(7-{2-[(4-{3,8-diazabicyclo[3.2.1]octan-3-yl}-7-(8-ethynyl-7-fluoro-3-hydroxynaphthalen-1-yl)-8-fluoropyrido[4,3-d]pyrimidin-2-yl)oxy]ethyl}-2,7-diazaspiro[3.5]nonan-2-yl)methyl]piperidin-1-yl}-1-oxo-2,3-dihydro-1H-isoindol-2-yl)piperidine-2,6-dione] gave a DC50 of 0.25 to 1 µM.
With `C#Cc1c(F)ccc2cc(O)cc(-c3ncc4c(N5CC6CCC(C5)N6)nc(OCCN5CCC(CN6CCN(CC7CCN(c8cccc9c8CN(C8CCC(=O)NC8=O)C9=O)CC7)CC6)CC5)nc4c3F)c12` (centres unmarked) [Compound 136, 3-{4-[4-({4-[(1-{2-[(4-{3,8-diazabicyclo[3.2.1]octan-3-yl}-7-(8-ethynyl-7-fluoro-3-hydroxynaphthalen-1-yl)-8-fluoropyrido[4,3-d]pyrimidin-2-yl)oxy]ethyl}piperidin-4-yl)methyl]piperazin-1-yl}methyl)piperidin-1-yl]-1-oxo-2,3-dihydro-1H-isoindol-2-yl}piperidine-2,6-dione] the Dmax was > 70% and the DC50 was < 5.1 µM.
